Measured values published in patent US12240844B2 (Voronoi, Inc., priority 2019, dated 2025).

Tests used:
MDA-MB-231 cell line = assay: MDA-MB-231 cancer cell proliferation inhibition (Cell Titer-Glo); type: cell-based; conditions: Homo sapiens, MDA-MB-231 triple-negative breast cancer cell line, 72 hours
Protocol: (§1) In order to evaluate the cancer cell proliferation inhibitory activity of the compounds of the present invention, the following experiments were performed.
(§2) To evaluate the cancer cell proliferation inhibitory effect, the cell growth rate analysis was performed while culturing MDA-MB-231 cell line (Korean Cell Line Bank #30026) and MDA-MB-468 cell line as the triple-negative breast cancer cell line, and SHP-77 (ATCC #CRL-2195) as the small cell lung cancer cell line in DMEM (HyClone #SH30243) and RPMI medium (HyClone #SH3027.01), respectively. More specifically, the cell lines were each plated at 2000 cells/100 μl in each well of a 96-well flat-bottom plate (coming #3903), and then the example compounds having eleven concentrations which were diluted by ⅓ so that the final concentrations were 10.000000, 3.333333, 1.111111, 0.370370, 0.123457, 0.041152, 0.013717, 0.004572, 0.001524, 0.000508 and 0.000169 μM were treated. After 72 hours, 100 μl of Cell Titer-Glo (Promega G7573) was treated, incubated at RT for 10 minutes, and then luminescence was measured using a microplate reader. The measured luminescence degree was calculated as GI50 using Prism (version 8.2 GraphPad) software.
(§3) In the table below, the following designations were used for the evaluation of proliferation inhibitory activity.

[1] = target: T1, human GST-DYRK1A (full length) (Homo sapiens, UniProt Q13627); assay: GST-DYRK1A enzyme inhibition, ADP-Glo kinase assay; type: biochemical; conditions: read-out: DYRK1 IC50
T1 construct: purified human GST-DYRK1A (full length, Thermo scientifics) enzyme; GST; purchased Thermo scientifics
In short: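 ADP-Glo luminescence quantified kinase activity after a 1 h, 25° C reaction of 10 ng full-length GST-tagged human DYRK1A, substrate and 10 uM ATP in Tris-HCl buffer pH 7.4 with MgCl2, BSA and DTT. Triplicate IC50 values (nM) calculated relative to untreated solvent control.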

SHP-77 = SHP-77 cancer cell proliferation inhibition (Cell Titer-Glo); type: cell-based; conditions: Homo sapiens, SHP77, SHP-77 small cell lung cancer cell line, 72 hours
Protocol: as §1, §2, §3

LRRK2 = LRRK2 (Homo sapiens, UniProt Q5S007); assay: LRRK2 enzyme inhibition, ADP-Glo kinase assay; type: biochemical; design: purchased Invitrogen PR8604B
In short: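 ADP-Glo luminescence read after 2 h at 25° C, 10 μM ATP, 25 ng purified human LRRK2 and […] substrate in Tris-HCl pH7.4 buffer with MgCl2, BSA, DTT. Twelve final concentrations, 50 μM down to 0.000001024 μM; IC50 (nM) from inhibition relative to untreated solvent control.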

human GST-CLK1 (129-end) = target: T2, human GST-CLK1 (129-end) (Homo sapiens, UniProt P49759); assay: GST-CLK1 enzyme inhibition, ADP-Glo kinase assay; type: biochemical; conditions: ATP 10 uM
T2 construct: purified human GST-CLK1 (129-end, Signalchem) enzyme; GST; purchased Signalchem
In short: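 ADP formation was read by ADP-Glo luminescence after 1 h at 25° C with 3 ng human GST-CLK1 (129-end), substrate and 10 uM ATP in Tris pH 7.4 buffer containing MgCl2, BSA and DTT. Inhibition relative to untreated solvent control gave IC50 (nM), run in triplicate.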

LRRK2 (G2019S) = LRRK2 (G2019S) (Homo sapiens, UniProt Q5S007, G2019S); assay: LRRK2 G2019S enzyme inhibition, ADP-Glo kinase assay; type: biochemical; design: purchased SignalChem L10-12GG
In short: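 Activity read as ADP-Glo luminescence, normalized to untreated solvent control, with IC50 (nM) fitted over 12 final compound levels (top 50 μM). Reaction: 2 h, 25° C, human LRRK2 G2019S 16 ng, ATP 25 μM, substrate 0.2 μg, in Tris-HCl pH 7.4 with MgCl2, BSA and DTT.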

LRRK2 (G2019S), sequence (Q5S007 970-2527 G2019S limits assumed): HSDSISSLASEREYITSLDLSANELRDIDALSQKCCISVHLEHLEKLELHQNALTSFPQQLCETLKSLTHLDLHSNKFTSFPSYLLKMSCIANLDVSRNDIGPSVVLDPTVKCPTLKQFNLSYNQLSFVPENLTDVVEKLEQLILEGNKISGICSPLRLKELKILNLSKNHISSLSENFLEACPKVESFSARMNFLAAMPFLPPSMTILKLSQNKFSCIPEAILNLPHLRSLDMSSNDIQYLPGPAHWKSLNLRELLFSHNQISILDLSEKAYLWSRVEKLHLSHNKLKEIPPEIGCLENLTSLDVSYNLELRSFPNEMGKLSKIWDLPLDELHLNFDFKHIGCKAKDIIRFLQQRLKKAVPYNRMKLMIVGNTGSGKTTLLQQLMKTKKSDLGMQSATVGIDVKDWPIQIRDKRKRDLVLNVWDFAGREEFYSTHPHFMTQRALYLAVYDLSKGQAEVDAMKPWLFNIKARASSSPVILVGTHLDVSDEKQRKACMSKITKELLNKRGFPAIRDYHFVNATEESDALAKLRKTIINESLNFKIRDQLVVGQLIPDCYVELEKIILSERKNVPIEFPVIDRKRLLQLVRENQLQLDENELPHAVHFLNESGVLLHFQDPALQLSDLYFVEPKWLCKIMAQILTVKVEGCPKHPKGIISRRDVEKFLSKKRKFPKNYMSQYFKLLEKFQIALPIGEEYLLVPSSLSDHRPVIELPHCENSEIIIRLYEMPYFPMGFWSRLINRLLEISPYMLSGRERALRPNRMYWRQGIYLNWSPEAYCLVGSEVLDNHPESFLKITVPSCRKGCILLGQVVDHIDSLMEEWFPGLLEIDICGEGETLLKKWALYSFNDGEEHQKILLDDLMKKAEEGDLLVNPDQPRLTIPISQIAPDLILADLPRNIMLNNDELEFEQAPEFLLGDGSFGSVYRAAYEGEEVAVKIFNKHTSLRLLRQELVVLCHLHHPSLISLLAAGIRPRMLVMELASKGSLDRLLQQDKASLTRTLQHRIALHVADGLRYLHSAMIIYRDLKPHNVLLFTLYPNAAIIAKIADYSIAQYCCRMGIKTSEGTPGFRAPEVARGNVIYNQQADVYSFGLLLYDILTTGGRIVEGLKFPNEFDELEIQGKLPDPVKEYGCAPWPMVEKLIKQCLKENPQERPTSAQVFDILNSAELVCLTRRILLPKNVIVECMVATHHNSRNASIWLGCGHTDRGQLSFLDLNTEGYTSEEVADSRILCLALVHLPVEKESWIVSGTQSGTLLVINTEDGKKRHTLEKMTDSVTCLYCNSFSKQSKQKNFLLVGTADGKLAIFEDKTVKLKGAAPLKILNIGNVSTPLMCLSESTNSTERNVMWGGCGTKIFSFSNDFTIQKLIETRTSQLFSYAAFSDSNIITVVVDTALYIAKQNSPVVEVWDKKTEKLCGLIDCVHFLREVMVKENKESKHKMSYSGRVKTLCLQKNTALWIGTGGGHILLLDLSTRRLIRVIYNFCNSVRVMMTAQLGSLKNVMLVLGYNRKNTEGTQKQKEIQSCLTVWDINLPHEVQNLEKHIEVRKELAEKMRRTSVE
LRRK2, sequence (Q5S007 970-2527 limits assumed): as the sequence (Q5S007 970-2527 G2019S limits assumed) above, with S1050G counted along it
T2 sequence (P49759 129-484 limits assumed): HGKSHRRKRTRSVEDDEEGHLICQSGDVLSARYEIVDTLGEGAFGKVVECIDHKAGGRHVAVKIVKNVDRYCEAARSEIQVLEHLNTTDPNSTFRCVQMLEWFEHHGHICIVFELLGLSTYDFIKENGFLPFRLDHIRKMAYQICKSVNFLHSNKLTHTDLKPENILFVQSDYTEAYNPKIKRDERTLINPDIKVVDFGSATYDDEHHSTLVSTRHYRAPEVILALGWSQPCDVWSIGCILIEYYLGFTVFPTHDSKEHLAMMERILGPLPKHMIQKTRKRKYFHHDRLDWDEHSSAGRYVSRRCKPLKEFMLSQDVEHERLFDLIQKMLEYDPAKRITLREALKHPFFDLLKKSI

| GI50 (MDA-MB-231 cell line) [nM] | IC50 [1] [nM] | GI50 (SHP-77) [nM] | IC50 (LRRK2) [nM] | IC50 (human GST-CLK1 (129-end)) [nM] | IC50 (LRRK2 (G2019S)) [nM] | Structure (SMILES) |
| --- | --- | --- | --- | --- | --- | --- |
| 51 to 100 | 301 to 1000 | < 50 | < 100 | 301 to 1000 | 301 to 1000 | COc1cc(S(=O)(=O)N2CCOCC2)ccc1Nc1cc(NC2CCC2)c2c(C#N)c[nH]c2n1 [Example 128, 4-(cyclobutylamino)-6-((2-methoxy-4-(morpholinosulfonyl)phenyl)amino)-1H-pyrrolo[2,3-b]pyridine-3-carbonitrile] |
| 51 to 100 | 301 to 1000 | < 50 | < 100 | 301 to 1000 | 101 to 300 | COc1cc(S(=O)(=O)N2CCOCC2)ccc1Nc1cc(NC2CC2)c2c(C#N)c[nH]c2n1 [Example 127, 4-(cyclopropylamino)-6-((2-methoxy-4-(morpholinosulfonyl)phenyl)amino)-1H-pyrrolo[2,3-b]pyridine-3-carbonitrile] |
| 301 to 1000 | 301 to 1000 | 301 to 1000 | 301 to 1000 | 301 to 1000 | 301 to 1000 | CCNc1cc(Nc2ccc(S(=O)(=O)N3CCOCC3)cc2OC)nc2[nH]cc(C(F)(F)F)c12 [Example 179, N^4-ethyl-N^6-(2-methoxy-4-(morpholinosulfonyl)phenyl)-3-(trifluoromethyl)-1H-pyrrolo[2,3-b]pyridine-4,6-diamine] |
| 301 to 1000 | 301 to 1000 | 301 to 1000 | 301 to 1000 | 301 to 1000 | 301 to 1000 | CCCNc1cc(Nc2ccc(S(=O)(=O)N3CCOCC3)cc2OC)nc2[nH]cc(C(F)(F)F)c12 [Example 199, N^6-(2-methoxy-4-(morpholinosulfonyl)phenyl)-N^4-propyl-3-(trifluoromethyl)-1H-pyrrolo[2,3-b]pyridine-4,6-diamine] |
| 301 to 1000 | 301 to 1000 | 301 to 1000 | 301 to 1000 | 301 to 1000 | – | COc1cc(S(=O)(=O)N2CCOCC2)ccc1Nc1cc(NC2CCC2)c2c(C(F)(F)F)c[nH]c2n1 [Example 203, N^4-cyclobutyl-N^6-(2-methoxy-4-(morpholinosulfonyl)phenyl)-3-(trifluoromethyl)-1H-pyrrolo[2,3-b]pyridine-4,6-diamine] |

Continued, compound first:

| Structure (SMILES) | GI50 (MDA-MB-231 cell line) [nM] | IC50 [1] [nM] | GI50 (SHP-77) [nM] | IC50 (LRRK2) [nM] | IC50 (human GST-CLK1 (129-end)) [nM] | IC50 (LRRK2 (G2019S)) [nM] |
| --- | --- | --- | --- | --- | --- | --- |
| COCCNc1cc(Nc2ccc(S(=O)(=O)N3CCOCC3)cc2OC)nc2[nH]cc(C(F)(F)F)c12 [Example 195, N^6-(2-methoxy-4-(morpholinosulfonyl)phenyl)-N^4-(2-methoxyethyl)-3-(trifluoromethyl)-1H-pyrrolo[2,3-b]pyridine-4,6-diamine] | 301 to 1000 | 301 to 1000 | 101 to 300 | 301 to 1000 | 301 to 1000 | 301 to 1000 |
| CCNc1cc(Nc2ccc(S(=O)(=O)N3CCOCC3)cc2OC)nc2[nH]cc(C#N)c12 [Example 132, 4-(ethylamino)-6-((2-methoxy-4-(morpholinosulfonyl)phenyl)amino)-1H-pyrrolo[2,3-b]pyridine-3-carbonitrile] | 101 to 300 | 301 to 1000 | 51 to 100 | < 100 | 301 to 1000 | 101 to 300 |
| CCCNc1cc(Nc2ccc(S(=O)(=O)N3CCOCC3)cc2OC)nc2[nH]cc(C#N)c12 [Example 133, 6-((2-methoxy-4-(morpholinosulfonyl)phenyl)amino)-4-(propylamino)-1H-pyrrolo[2,3-b]pyridine-3-carbonitrile] | 101 to 300 | 301 to 1000 | 51 to 100 | < 100 | 301 to 1000 | 301 to 1000 |
| COc1cc(S(=O)(=O)N2CCC(N3CCOCC3)CC2)ccc1Nc1cc(NC2CC2)c2c(C#N)c[nH]c2n1 [Example 134, 4-(cyclopropylamino)-6-((2-methoxy-4-((4-morpholinopiperidin-1-yl)sulfonyl)phenyl)amino)-1H-pyrrolo[2,3-b]pyridine-3-carbonitrile] | < 50 | 301 to 1000 | < 50 | < 100 | 101 to 300 | < 100 |
| COc1cc(S(=O)(=O)N2CCC(N3CCOCC3)CC2)ccc1Nc1cc(NC2CCC2)c2c(C#N)c[nH]c2n1 [Example 135, 4-(cyclobutylamino)-6-((2-methoxy-4-((4-morpholinopiperidin-1-yl)sulfonyl)phenyl)amino)-1H-pyrrolo[2,3-b]pyridine-3-carbonitrile] | 51 to 100 | 301 to 1000 | < 50 | < 100 | 301 to 1000 | < 100 |
| CNc1cc(Nc2ccc(S(=O)(=O)N3CCOCC3)cc2OC)nc2[nH]cc(C#N)c12 [Example 131, 6-((2-methoxy-4-(morpholinosulfonyl)phenyl)amino)-4-(methylamino)-1H-pyrrolo[2,3-b]pyridine-3-carbonitrile] | 51 to 100 | 301 to 1000 | < 50 | < 100 | 301 to 1000 | < 100 |
| O=S(=O)(c1ccc(Nc2cc(C3CC3)c3c(C(F)(F)F)c[nH]c3n2)c2c1OCCO2)N1CCOCC1 [Example 100, 4-cyclopropyl-N-(8-(morpholinosulfonyl)-2,3-dihydrobenzo[b] [1,4]dioxin-5-yl)-3-(trifluoromethyl)-1H-pyrrolo[2,3-b]pyridine-6-amine] | 301 to 1000 | < 100 | 301 to 1000 | 301 to 1000 | 301 to 1000 | 301 to 1000 |
| CCCNc1cc(Nc2ccc(S(=O)(=O)N3CCC(N4CCOCC4)CC3)cc2OC)nc2[nH]cc(C#N)c12 [Example 139, 6-((2-methoxy-4-((4-morpholinopiperidin-1-yl)sulfonyl)phenyl)amino)-4-(propylamino)-1H-pyrrolo[2,3-b]pyridine-3-carbonitrile] | < 50 | 301 to 1000 | < 50 | < 100 | 301 to 1000 | < 100 |
| CNc1cc(Nc2ccc(S(=O)(=O)N3CCOCC3)c3c2OCCO3)nc2[nH]cc(C(F)(F)F)c12 [Example 98, N^4-methyl-N^6-(8-(morpholonosulfonyl)-2,3-dihydrobenzo[b] [1,4]dioxin-5-yl)-3-(trifluoromethyl)-1H-pyrrolo[2,3-b]pyridine-4,6-diamine] | 101 to 300 | 101 to 300 | 301 to 1000 | 101 to 300 | 301 to 1000 | < 100 |
| COc1cc(S(=O)(=O)N2CCC(N3CCOCC3)CC2)ccc1Nc1cc(NCCS(C)(=O)=O)c2c(C#N)c[nH]c2n1 [Example 141, 6-((2-methoxy-4-((4-morpholinopiperidin-1-yl)sulfonyl)phenyl)amino)-4-((2-(methylsulfonyl)ethyl)amino)-1H-pyrrolo[2,3-b]pyridine-3-carbonitrile] | 101 to 300 | < 100 | 51 to 100 | < 100 | 301 to 1000 | – |
| CCNc1cc(Nc2ccc(S(=O)(=O)N3CCC(N4CCOCC4)CC3)c3c2OCC3)nc2[nH]cc(C(F)(F)F)c12 [Example 104, N^4-ethyl-N^6-(4-((4-morpholinopiperidin-1-yl)sulfonyl)-2,3-dihydrobenzofuran-7-yl)-3-(trifluoromethyl)-1H-pyrrolo[2,3-b]pyridine-4,6-diamine] | 301 to 1000 | 301 to 1000 | 101 to 300 | < 100 | 301 to 1000 | – |
